Test results as given in patent US8952024B2, “Herbicidal pyrimidone derivatives” (E I du Pont de Nemours and Company, priority 2009, dated 2015).

Tests used:
Type in all cases: in vivo
[1] = test system: cocklebur (Xanthium strumarium); experiment: Test B pre-/postemergence plant response
Method in brief: (§1)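 Test compounds, formulated in a non-phytotoxic solvent mixture with surfactant, are applied to the soil surface (loam and sand blend) right after seeding, or sprayed over plants at the 1- to 4-leaf stage grown in peat moss/vermiculite medium. After 13 to 15 days under glasshouse conditions, each species is scored visually from 0 (no effect) to 100 (complete control) against controls.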

[2] = test system: giant foxtail (Setaria faberii); experiment: Test B pre-/postemergence plant response
Method in brief: as §1

[3] = test system: green foxtail (Setaria viridis); experiment: Test B pre-/postemergence plant response
Method in brief: as §1

[4] = test system: giant foxtail (Setaria faberii); experiment: Test A pre-/postemergence plant response
Method in brief: (§2)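 Formulated test chemicals (non-phytotoxic solvent, surfactant) were sprayed onto soil right after planting and simultaneously onto young plants at one to two leaves, 2 to 10 cm tall. Plants stayed in the greenhouse about ten days; injury was then visually scored against untreated controls, from 0 (no effect) to 100 (complete control).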

[5] = test system: barnyardgrass (Echinochloa crus-galli); experiment: Test A pre-/postemergence plant response
Method in brief: as §2

[6] = test system: velvetleaf (Abutilon theophrasti); experiment: Test A pre-/postemergence plant response
Method in brief: as §2

[7] = test system: pigweed (Amaranthus retroflexus); experiment: Test A pre-/postemergence plant response
Method in brief: as §2

[8] = test system: wheat (Triticum aestivum); experiment: Test A pre-/postemergence plant response
Method in brief: as §2

[9] = test system: large crabgrass (Digitaria sanguinalis); experiment: Test A pre-/postemergence plant response
Method in brief: as §2

corn (Zea mays) = experiment: Test A pre-/postemergence plant response
Method in brief: as §2

[10] = test system: morningglory (Ipomoea spp.); experiment: Test A pre-/postemergence plant response
Method in brief: as §2

[11] = Postemergence, 31 g ai/ha, scale 0 to 100 (0 no effect, 100 complete control)
[12] = Postemergence, 62 g ai/ha, scale 0 (no effect) to 100 (complete control), 13 to 15 days
[13] = Postemergence, 125 g ai/ha, visual rating after 13 to 15 days, scale 0 (no effect) to 100 (complete control)
[14] = Postemergence, 250 g ai/ha, scale 0 to 100
[15] = 250 g ai/ha, Preemergence, 0 to 100 scale
[16] = Preemergence, 31 g ai/ha, scale 0 to 100 (0 no effect, 100 complete control)
[17] = Preemergence, 62 g ai/ha, scale 0 to 100, 0 no effect, 100 complete control
[18] = Preemergence, 125 g ai/ha, 0 to 100 scale
[19] = Postemergence, 125 g ai/ha, visual injury, 0 to 100 scale (0 no effect, 100 complete control), approx. ten days
[20] = Postemergence, 500 g ai/ha, 0 to 100 scale, 0 = no effect, 100 = complete control, approx. ten days
[21] = Preemergence, 125 g ai/ha, 0 to 100 scale, 0 = no effect, 100 = complete control
[22] = Preemergence, 500 g ai/ha, visual injury, 0 to 100 scale (0 no effect, 100 complete control), approx. ten days
[23] = 16 g ai/ha, Postemergence, 0 to 100 scale
[24] = 31 g ai/ha, postemergence, scale 0 to 100, 0 is no effect, 100 is complete control
[25] = 62 g ai/ha, postemergence, 0 is no effect, 100 is complete control, 13 to 15 days
[26] = Preemergence, 16 g ai/ha, scale 0 to 100, 0 no effect, 100 complete control
[27] = Preemergence, 125 g ai/ha, scale 0 to 100, 0 no effect, 100 complete control

Cc1cccc(-n2c(-c3cccc(Cl)c3)ncc(C(=O)C3=C(O)CCCC3=O)c2=O)c1 [Compound 45]
20: Plant response rating, Wheat [8, 22] | Plant response rating, Corn (corn (Zea mays); [20]) | Plant response rating, Morningglory [10, 21]
98: Foxtail, Giant plant response rating [2, 14]
75: Plant response rating, Foxtail, Giant [2, 15] | Plant response rating, Foxtail, Giant [2, 11]
90: Plant response rating, Foxtail, Giant [2, 12] | Plant response rating, Foxtail, Giant [4, 20] | Barnyardgrass plant response rating [5, 19] | Pigweed plant response rating [7, 19] | Plant response rating, Crabgrass, Large [9, 20] | Plant response rating, Morningglory [10, 22]
80: Plant response rating, Foxtail, Green [3, 12] | Plant response rating, Foxtail, Green [3, 17] | Foxtail, Green plant response rating [3, 18] | Plant response rating, Foxtail, Giant [4, 22] | Plant response rating, Barnyardgrass [5, 22] | Plant response rating, Pigweed [7, 21] | Morningglory plant response rating [10, 19]
85: Plant response rating, Foxtail, Green [3, 13]
70: Plant response rating, Cocklebur [1, 13]
0: Plant response rating, Foxtail, Giant [2, 16] | Plant response rating, Foxtail, Giant [2, 17] | Plant response rating, Foxtail, Green [3, 16] | Plant response rating, Foxtail, Giant [4, 21] | Wheat plant response rating [8, 19] | Plant response rating, Wheat [8, 21] | Corn plant response rating (corn (Zea mays); [19]) | Plant response rating, Corn (corn (Zea mays); [21]) | Plant response rating, Corn (corn (Zea mays); [22])
40: Plant response rating, Barnyardgrass [5, 21] | Plant response rating, Wheat [8, 20]
100: Plant response rating, Foxtail, Green [3, 15] | Plant response rating, Barnyardgrass [5, 20] | Velvetleaf plant response rating [6, 19] | Plant response rating, Velvetleaf [6, 20] | Plant response rating, Velvetleaf [6, 22] | Plant response rating, Pigweed [7, 20] | Plant response rating, Pigweed [7, 22] | Plant response rating, Crabgrass, Large [9, 22] | Plant response rating, Morningglory [10, 20]
10: Plant response rating, Cocklebur [1, 11]
50: Plant response rating, Cocklebur [1, 12] | Plant response rating, Foxtail, Green [3, 11] | Foxtail, Giant plant response rating [4, 19] | Plant response rating, Crabgrass, Large [9, 21]
95: Cocklebur plant response rating [1, 14] | Plant response rating, Foxtail, Giant [2, 13] | Foxtail, Green plant response rating [3, 14]
45: Foxtail, Giant plant response rating [2, 18]
60: Plant response rating, Velvetleaf [6, 21] | Crabgrass, Large plant response rating [9, 19]

O=C1CCCC(O)=C1C(=O)c1cnc(-c2cccc(Br)c2)n(-c2ccccc2)c1=O [Compound 69]
75: Plant response rating, Foxtail, Giant [2, 17] | Plant response rating, Foxtail, Green [3, 23]
98: Foxtail, Giant plant response rating (0 to 100 scale) [2, 25] | Plant response rating, Foxtail, Giant [2, 13] | Foxtail, Green plant response rating (0 to 100 scale) [3, 25]
40: Plant response rating, Foxtail, Giant [4, 21] | Plant response rating, Corn (corn (Zea mays); [20])
20: Plant response rating, Cocklebur [1, 13] | Corn plant response rating (corn (Zea mays); [19])
70: Plant response rating, Foxtail, Green [3, 17] | Plant response rating, Foxtail, Giant [4, 22] | Plant response rating, Velvetleaf [6, 21]
50: Plant response rating, Morningglory [10, 22]
85: Plant response rating, Foxtail, Green [3, 27]
60: Plant response rating, Barnyardgrass [5, 22]
90: Plant response rating, Foxtail, Giant [2, 27] | Plant response rating, Foxtail, Giant [4, 20] | Barnyardgrass plant response rating [5, 19] | Plant response rating, Crabgrass, Large [9, 21]
0: Plant response rating, Cocklebur [1, 23] | Plant response rating, Cocklebur [1, 24] | Cocklebur plant response rating (0 to 100 scale) [1, 25] | Plant response rating, Cocklebur [1, 26] | Plant response rating, Cocklebur [1, 16] | Plant response rating, Cocklebur [1, 17] | Plant response rating, Foxtail, Giant [2, 26] | Wheat plant response rating [8, 19] | Plant response rating, Wheat [8, 21] | Plant response rating, Corn (corn (Zea mays); [21]) | Plant response rating, Corn (corn (Zea mays); [22]) | Plant response rating, Morningglory [10, 21]
10: Plant response rating, Cocklebur [1, 27] | Plant response rating, Barnyardgrass [5, 21] | Plant response rating, Wheat [8, 20] | Plant response rating, Wheat [8, 22]
100: Plant response rating, Foxtail, Green [3, 13] | Plant response rating, Barnyardgrass [5, 20] | Velvetleaf plant response rating [6, 19] | Plant response rating, Velvetleaf [6, 20] | Plant response rating, Velvetleaf [6, 22] | Pigweed plant response rating [7, 19] | Plant response rating, Pigweed [7, 20] | Plant response rating, Pigweed [7, 21] | Plant response rating, Pigweed [7, 22] | Plant response rating, Crabgrass, Large [9, 20] | Plant response rating, Crabgrass, Large [9, 22] | Morningglory plant response rating [10, 19] | Plant response rating, Morningglory [10, 20]
95: Plant response rating, Foxtail, Giant [2, 24] | Plant response rating, Foxtail, Green [3, 24]
5: Plant response rating, Foxtail, Giant [2, 16]
80: Plant response rating, Foxtail, Giant [2, 23] | Foxtail, Giant plant response rating [4, 19] | Crabgrass, Large plant response rating [9, 19]
